Drawing on paper PMC2739159, “Evidence for inhibition of cholinesterases in insect and mammalian nervous systems by the insect repellent deet” (BMC Biology, 2009), this text covers Ki for one molecule.

Experiment [1] concerns the target T1, HuBChE (Homo sapiens, UniProt P06276).
T1 construct: gene BCHE; native human enzyme, commercial (Sigma Chemical Co.)
The experiment can be described thus: Ellman assay, […] nm; global fit of hydrolysis inhibition and carbamoylation. In kind it is biochemical. As to conditions: read-out: HuBChE (BTCh).

Experiment [2] deals with T2, DmAChE (Drosophila melanogaster, UniProt P07140).
T2 construct: gene Ace
Described as above. In kind it is biochemical. As to conditions: read-out: DmAChE (ATCh).

On to `CCN(CC)C(=O)c1cccc(C)c1` [deet, N,N-Diethyl-3-methylbenzamide], for which the Ki in experiment [1] was 370 ± 50 µM; in experiment [2], 1020 ± 30 µM.
